Reference: patent US11529363B2, “Methods of treating cancer in pediatric patients” (ARIAD Pharmaceuticals, Inc., priority 2018, dated 2022)

Legend:
ALK+ NSCLC = experiment: phase 2 study AP26113-13-201 (ALTA trial) in adult patients with ALK+ NSCLC refractory to crizotinib; assay type: in vivo, human
Procedure: In the pivotal phase 2 study in adults with ALK+ NSCLC, 2 dose regimens were evaluated: (1) 90 mg QD; (2) 90 mg QD in Week 1 followed by escalation to 180 mg QD for those patients tolerating the 7-day 90 mg QD lead in. […] To mitigate the risk for EOPEs in pediatric patients, the doses of brigatinib selected for Week 1 of treatment are informed by adult clinical experience and designed to achieve systemic exposures not exceeding those at the 90 mg daily dose in adults.

[1] = cross-study comparison of brigatinib exposure, oral solution (AP26113-13-104) vs tablet (AP26113-16-110); assay type: in vivo, human
[2] = first-in-human Study AP26113-11-101, tolerated dose in adults
Procedure: One additional dose level is planned if the 40 mg/m^2 QD→80 mg/m^2 QD dose is tolerated.

ALK = ALK (Homo sapiens, UniProt Q9UM73); settings: in vitro studies; cited from earlier work
[3] = tested on: secondary ALK mutants of EML4-ALK; settings: at relevant levels of exposure achieved in patients; cited from earlier work
[4] = pediatric, 280 mg/m^2; cited from earlier work
[5] = 90→180 mg QD, adult ALK+ NSCLC refractory to crizotinib

Chain of ALK (Q9UM73 19-1620): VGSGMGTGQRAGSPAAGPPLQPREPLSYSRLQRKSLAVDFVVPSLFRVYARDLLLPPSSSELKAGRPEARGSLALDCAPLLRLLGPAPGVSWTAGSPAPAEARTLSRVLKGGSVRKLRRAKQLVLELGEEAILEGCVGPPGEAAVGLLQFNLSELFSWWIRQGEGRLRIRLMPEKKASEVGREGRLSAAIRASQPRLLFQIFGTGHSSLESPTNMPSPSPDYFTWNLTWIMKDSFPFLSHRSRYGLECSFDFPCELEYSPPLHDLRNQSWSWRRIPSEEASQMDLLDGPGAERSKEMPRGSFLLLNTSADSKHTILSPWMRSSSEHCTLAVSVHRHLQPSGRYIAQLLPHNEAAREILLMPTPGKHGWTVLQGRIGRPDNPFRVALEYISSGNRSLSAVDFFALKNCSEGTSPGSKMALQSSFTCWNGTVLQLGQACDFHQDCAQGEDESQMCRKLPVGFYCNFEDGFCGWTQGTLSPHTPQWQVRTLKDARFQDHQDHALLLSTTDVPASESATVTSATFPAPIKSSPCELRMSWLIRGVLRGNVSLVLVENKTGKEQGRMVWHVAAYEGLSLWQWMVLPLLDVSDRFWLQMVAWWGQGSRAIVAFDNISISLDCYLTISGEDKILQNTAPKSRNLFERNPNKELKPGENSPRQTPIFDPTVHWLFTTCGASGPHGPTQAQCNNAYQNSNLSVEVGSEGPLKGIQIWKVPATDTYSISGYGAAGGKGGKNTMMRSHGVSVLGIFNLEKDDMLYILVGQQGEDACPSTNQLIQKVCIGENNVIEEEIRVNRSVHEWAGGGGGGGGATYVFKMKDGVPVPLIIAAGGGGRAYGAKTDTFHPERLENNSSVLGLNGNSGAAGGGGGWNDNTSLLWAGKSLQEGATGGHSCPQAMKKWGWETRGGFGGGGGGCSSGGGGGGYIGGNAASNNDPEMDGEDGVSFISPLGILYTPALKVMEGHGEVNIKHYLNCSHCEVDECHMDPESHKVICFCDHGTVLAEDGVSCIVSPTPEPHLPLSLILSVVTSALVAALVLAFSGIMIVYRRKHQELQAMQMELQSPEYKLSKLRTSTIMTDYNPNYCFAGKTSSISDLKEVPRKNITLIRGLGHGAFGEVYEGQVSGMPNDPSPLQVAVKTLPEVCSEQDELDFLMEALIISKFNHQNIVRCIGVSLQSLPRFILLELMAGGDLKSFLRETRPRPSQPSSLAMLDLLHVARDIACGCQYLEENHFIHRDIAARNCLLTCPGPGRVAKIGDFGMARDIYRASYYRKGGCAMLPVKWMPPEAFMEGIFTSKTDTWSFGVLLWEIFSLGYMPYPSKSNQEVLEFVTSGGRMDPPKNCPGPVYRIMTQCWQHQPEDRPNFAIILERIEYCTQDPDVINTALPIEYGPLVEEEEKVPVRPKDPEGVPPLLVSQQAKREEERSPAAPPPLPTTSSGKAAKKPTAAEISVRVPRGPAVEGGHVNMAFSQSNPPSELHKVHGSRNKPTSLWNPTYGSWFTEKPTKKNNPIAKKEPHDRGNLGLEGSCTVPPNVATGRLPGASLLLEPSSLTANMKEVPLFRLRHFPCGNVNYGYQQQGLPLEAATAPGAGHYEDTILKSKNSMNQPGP

Row | SMILES | duration of response (DOR) (ALK+ NSCLC; [5]) [months] | investigator-assessed confirmed ORR (ALK+ NSCLC; [5]) [%] | progression-free survival (PFS) (ALK+ NSCLC; [5]) [months] | PFS at 180 mg QD versus 90 mg QD (ALK+ NSCLC; pivotal phase 2 study, adults with ALK+ NSCLC) | relative bioavailability of oral solution, AUC higher in reference to the tablet ([1]; oral solution vs tablet, adults) | oral solution/tablet AUC ratio ([1]; relative bioavailability factor) | highest acceptably tolerated dose [2] [mg QD] | ALK inhibitor potency compared with crizotinib, ceritinib and alectinib (ALK) | activity against 17 secondary ALK mutants of EML4-ALK [3] | systemic exposure at MTD/RP2D higher than adult clinical exposures at 250 mg BID [4] [%]
1 | COc1cc(N2CCC(N3CCN(C)CC3)CC2)ccc1Nc1ncc(Cl)c(Nc2ccccc2P(C)(C)=O)n1 [brigatinib, 5-chloro-N4-[2-(dimethylphosphoryl)phenyl]-N2-{2-methoxy-4-[4-(4-methylpiperazin-1-yl)piperidin-1-yl]phenyl}pyrimidine-2,4-diamine] | 13.8 | 55.5 | 15.6 | longer PFS at 180 mg QD | approximately 42% | 1.42 | 240 | more potent ALK inhibitor than crizotinib, ceritinib, and alectinib | maintain substantial activity against all 17 secondary ALK mutants | –
2 | C[C@@H](Oc1cc(-c2cnn(C3CCNCC3)c2)cnc1N)c1c(Cl)ccc(F)c1Cl [crizotinib] | – | – | – | – | – | – | – | – | – | ~50
